How the values were obtained:
Format in all cases: functional, cell-based
[1] = test system: K562; test: Antiproliferative activity against human K562 cells after 48 hrs by MTT assay; settings: K562, 48 h
[2] = test system: HCT-116; test: Antiproliferative activity against human HCT116 cells after 48 hrs by MTT assay; settings: HCT-116, 48 h
[3] = test system: SMMC-7721; test: Antiproliferative activity against human SMMC7721 cells after 48 hrs by MTT assay; settings: SMMC-7721, 48 h
[4] = test system: HepG2; test: Antiproliferative activity against human HepG2 cells after 48 hrs by MTT assay; settings: HepG2, 48 h

Work on `O=C1c2cccc3cccc(c23)C(=O)N1CCCCNCCCCNCCCCNC1CC1` yielded an IC50 [1] of 8.55 µM, an IC50 [2] of 15.1 µM and an IC50 [3] of 12 µM. For the same molecule, the IC50 [4] was 9.68 µM.

In the case of `CCCNCCCNCCCCNCCCN1C(=O)c2cccc3cccc(c23)C1=O`, the IC50 [1] is reported as 7.71 µM, the IC50 [2] is reported as 5.2 µM and the IC50 [3] is reported as 6.6 µM. For the same molecule, the IC50 [4] was 7.66 µM.

For `O=C1c2cccc3cccc(c23)C(=O)N1CCCNCCCCNCCCNC1CC1`, the IC50 [1] was 8.09 µM, the IC50 [2] was 7.21 µM and the IC50 [3] was 6.38 µM. The IC50 [4] was 6.59 µM.

For `O=C1c2cccc3cccc(c23)C(=O)N1CCCNCCCCNCCCNC1CCCCC1`, the IC50 [1] was 17.2 µM, the IC50 [2] was 18.3 µM and the IC50 [3] was 29.9 µM. The IC50 [4] was 25.4 µM.

Work on `CCNCCCNCCCCNCCCN1C(=O)c2cccc3cccc(c23)C1=O` yielded an IC50 [1] of 14.8 µM, an IC50 [2] of 5.94 µM and an IC50 [3] of 11 µM. It also gave an IC50 [4] of 5.22 µM.
